Legend:
[1] = biological target: KDM5C (Homo sapiens, UniProt P41229); assay: Covalent binding by MS, KDM5C; conditions: same conditions as with KDM5B
[2] = biological target: T1, KDM4B (Homo sapiens, UniProt O94953); assay: Covalent binding by MS, KDM4B; conditions: same conditions as with KDM5B
T1 sequence (O94953 1-1096): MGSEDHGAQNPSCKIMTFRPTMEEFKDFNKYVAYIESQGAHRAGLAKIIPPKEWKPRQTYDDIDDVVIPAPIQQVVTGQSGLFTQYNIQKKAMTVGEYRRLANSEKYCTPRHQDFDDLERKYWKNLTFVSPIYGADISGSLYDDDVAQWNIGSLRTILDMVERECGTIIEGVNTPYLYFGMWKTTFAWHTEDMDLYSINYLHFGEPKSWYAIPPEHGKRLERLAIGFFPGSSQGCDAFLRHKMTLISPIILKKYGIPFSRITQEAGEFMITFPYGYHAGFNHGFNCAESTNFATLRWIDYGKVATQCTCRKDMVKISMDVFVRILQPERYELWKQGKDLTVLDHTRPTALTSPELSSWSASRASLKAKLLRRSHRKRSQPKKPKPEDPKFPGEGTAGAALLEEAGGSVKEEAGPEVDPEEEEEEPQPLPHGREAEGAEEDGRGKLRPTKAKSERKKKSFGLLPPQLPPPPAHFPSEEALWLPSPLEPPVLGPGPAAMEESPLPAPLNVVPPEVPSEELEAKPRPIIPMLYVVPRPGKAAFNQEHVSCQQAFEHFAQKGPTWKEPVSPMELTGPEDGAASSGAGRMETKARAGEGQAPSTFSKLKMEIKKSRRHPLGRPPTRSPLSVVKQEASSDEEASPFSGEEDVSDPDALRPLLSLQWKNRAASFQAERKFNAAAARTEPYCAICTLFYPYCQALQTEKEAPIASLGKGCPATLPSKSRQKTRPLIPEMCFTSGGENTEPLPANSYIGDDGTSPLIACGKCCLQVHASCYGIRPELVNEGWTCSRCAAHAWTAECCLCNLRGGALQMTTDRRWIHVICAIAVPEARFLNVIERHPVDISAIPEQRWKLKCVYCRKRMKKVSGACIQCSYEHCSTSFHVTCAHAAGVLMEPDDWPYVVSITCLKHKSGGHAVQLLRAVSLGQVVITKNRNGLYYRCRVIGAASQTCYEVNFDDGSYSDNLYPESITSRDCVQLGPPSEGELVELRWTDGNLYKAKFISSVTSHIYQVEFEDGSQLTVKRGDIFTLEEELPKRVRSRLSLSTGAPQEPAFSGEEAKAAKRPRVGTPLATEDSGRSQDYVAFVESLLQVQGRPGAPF
Procedure: Covalent binding of the inhibitors with KDM5B was confirmed through MS‐labelling experiments (Figure 3). […] The specific covalent binding to KDM5B explains the improved selectivity over KDM5C and KDM4B compared to non‐covalent inhibitor 2.
Covalent binding RapidFire
Recombinant KDM5B (MW = 55152 Da) was incubated at 1 μM with the appropriate compound at 10 μM for 2 hours at 37 °C in 50 mM MES buffer at pH 7.0. Samples were injected in RapidFire 365 and MS was detected in QTOF mass spectrometer. Data were acquire and analysed with Agilent Mass Hunter software.
Recombinant KDM5B was incubated at 1 μM with the appropriate compound at 10 μM for 2 hours at 37 °C in 200 µL of 50 mM MES buffer at pH 7.0. […]
Digestion with elastase (1 µL) overnight at 37 °C followed by purification with SEP-PAK C18 columns and resuspension of the final sample in 98% MilliQ-H20 2% CH3CN 0.1% TFA gave the final sample ready to inject. […]
NanoBRET™ Nano-Glo® substrate (Promega UK) and Extracellular NanoLuc Inhibitor (Promega UK) were added at final concentrations of 10 and 20 µM, respectively. Readings were performed within 5 minutes using a PHERAstar FSX (BMG Labtech) with 450 and 610 nm filters. Corrected BRET ratios were calculated and is defined as the ratio if the emission at 610/450 nm for experimental samples (i.e. those treated with tracer) minus the emission at 610/450 nm for control samples (DMSO controls). […]

KDM5C, sequence (P41229 whole entry): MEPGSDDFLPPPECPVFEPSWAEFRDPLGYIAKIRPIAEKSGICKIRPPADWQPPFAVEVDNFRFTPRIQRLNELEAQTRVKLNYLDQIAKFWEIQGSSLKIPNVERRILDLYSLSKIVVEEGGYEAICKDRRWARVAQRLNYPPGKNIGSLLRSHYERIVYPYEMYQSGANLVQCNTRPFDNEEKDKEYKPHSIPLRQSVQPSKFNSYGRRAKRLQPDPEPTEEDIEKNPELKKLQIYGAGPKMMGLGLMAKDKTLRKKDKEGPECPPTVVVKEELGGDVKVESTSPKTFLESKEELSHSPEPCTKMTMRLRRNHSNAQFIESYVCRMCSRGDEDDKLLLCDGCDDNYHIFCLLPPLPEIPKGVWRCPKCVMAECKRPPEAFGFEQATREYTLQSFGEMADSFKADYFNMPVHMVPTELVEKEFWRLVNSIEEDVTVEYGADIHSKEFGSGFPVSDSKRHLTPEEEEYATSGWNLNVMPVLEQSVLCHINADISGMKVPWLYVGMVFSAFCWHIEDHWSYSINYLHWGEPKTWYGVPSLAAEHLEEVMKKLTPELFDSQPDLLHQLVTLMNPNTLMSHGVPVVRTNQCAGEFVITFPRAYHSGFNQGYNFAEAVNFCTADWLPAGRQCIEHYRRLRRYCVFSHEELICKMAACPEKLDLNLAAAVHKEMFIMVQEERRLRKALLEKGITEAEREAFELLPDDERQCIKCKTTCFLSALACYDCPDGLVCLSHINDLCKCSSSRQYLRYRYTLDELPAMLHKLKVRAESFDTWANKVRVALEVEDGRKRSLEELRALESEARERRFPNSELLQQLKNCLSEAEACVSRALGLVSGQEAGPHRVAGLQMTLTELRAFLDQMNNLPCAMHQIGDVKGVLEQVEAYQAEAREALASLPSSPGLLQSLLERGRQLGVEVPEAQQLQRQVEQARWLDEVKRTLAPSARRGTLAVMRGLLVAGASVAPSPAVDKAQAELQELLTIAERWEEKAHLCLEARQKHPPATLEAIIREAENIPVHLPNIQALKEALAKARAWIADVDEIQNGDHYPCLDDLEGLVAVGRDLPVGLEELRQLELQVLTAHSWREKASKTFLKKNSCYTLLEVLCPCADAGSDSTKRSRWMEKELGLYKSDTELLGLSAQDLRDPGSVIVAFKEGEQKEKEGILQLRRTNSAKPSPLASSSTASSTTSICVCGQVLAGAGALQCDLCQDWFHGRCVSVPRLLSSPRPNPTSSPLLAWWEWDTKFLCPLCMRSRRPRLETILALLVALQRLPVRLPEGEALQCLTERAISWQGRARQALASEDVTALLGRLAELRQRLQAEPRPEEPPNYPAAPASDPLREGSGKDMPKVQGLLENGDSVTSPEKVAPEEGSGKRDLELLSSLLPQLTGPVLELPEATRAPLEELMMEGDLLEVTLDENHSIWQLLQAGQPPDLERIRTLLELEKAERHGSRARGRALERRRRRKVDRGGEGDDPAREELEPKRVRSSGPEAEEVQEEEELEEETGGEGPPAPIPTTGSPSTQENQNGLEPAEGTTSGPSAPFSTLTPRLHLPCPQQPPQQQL

SMILES: CN(C)C/C=C/C(=O)Nc1cccc(CN(C)CCc2cnn(-c3nccc4c(=O)[nH]cnc34)c2)c1 [Compound 6]
- covalent binding to KDM5C by MS [1]: no covalent binding
- covalent binding to KDM4B by MS [2]: no covalent binding
